Test results published in patent publication US6855504B2, “In vivo high throughput toxicology screening method” (priority 1999, dated 2005).
Where two headings read alike, the source gives them in different places.

What was measured:
Assay type in all cases: in vivo
[1] = system: Fly
Procedure: The chemical is dissolved in water at or near its saturation point. Serial dilutions of this stock solution are used to rehydrate instant fly media (Fisher Scientific). Specifically, one toxicity assay will comprise of instant fly media rehydrated with pure stock solution of a chemical, while another will be rehydrated with a 10% solution of the chemical (in water). This format will be used to generate data over a 4 to 5 log dose range for each chemical tested.
A known quantity of embryos, typically between 40-50, is used as the input. Specifically, 40 to 50 embryos are counted and placed in the receptacle that contains the media/chemical mixture to be tested. The embryos may be counted manually or by automation (e.g., liquid suspension of embryos flowing through a diode). The larva feed on the media/chemical mixture. All aspects of development from larva stage to adult must proceed normally in the presence of the chemical. The only food and water source available to the larva and flies contains the chemical. […] Specifically, Iron, Copper, and zinc have been selected. Sensitive and accurate kits are commercially available to analyze these chemicals down to a concentration of 1 part per million. This will assign quantitative analyses to determine variability between larva in a test receptacle and between larva in different receptacles.
The developing larva and pupa are examined for normal growth and development. Then the adult flies are analyzed for lethality, sterility, developmental defects, and life span alterations. Lethality is determined by dividing the number of adult flies that eclose by the total number of embryos that were placed in the receptacle. Sterility is examined for both males and females by crossing them to normal flies. […] Finally the flies are allowed to live the natural span of their life to determine whether an effect occurred to either shorten or lengthen the average lifespan of the fly.
(§1) Using standard protocols, including the ones described above for administration to flies, a variety of agents were administered at different doses to mice, rats and flies and the LD for each agent was compared.

[2] = system: Mouse
Procedure: as §1

[3] = system: Rat
Procedure: as §1

[4] = system: fruit fly; assay: AntiToxicity screen: fly survival with toxins with and without EDTA; details: yeast paste: None
Description: This binding can occur in vitro or in vivo. In vivo binding can lead to neutralizing the toxicity of heavy metals to animals.

Nc1ccccc1N [phenylenediamine]
Fly (oral LD50 mg/ml) ([1]; oral, chemical in fly media): .2 mg/mL
Mouse (oral LD50 mg/ml) ([2]; oral): 366 mg/mL
Rat (oral LD50 mg/ml) ([3]; oral): 510 mg/mL

O.O.O.O.O.O.O.O.O.O.[Na+].[Na+].[O-]B1OB2OB([O-])OB(O1)O2 [sodium borate]
Fly (oral LD50 mg/ml) ([1]; oral, chemical in fly media): 6.5 mg/mL
Mouse (oral LD50 mg/ml) ([2]; oral): 2000 mg/mL
Rat (oral LD50 mg/ml) ([3]; oral): 2660 mg/mL

[Cl][Cd][Cl] [cadmium chloride]
Fly (oral LD50 mg/ml) ([1]; oral, chemical in fly media): .1 mg/mL
Mouse (oral LD50 mg/ml) ([2]; oral): 60 mg/mL
Rat (oral LD50 mg/ml) ([3]; oral): 88 mg/mL

COP(=O)(OC)C(O)C(Cl)(Cl)Cl (stereo not shown) [metrifonate]
toxicity category in flies ([1]; flies, oral LD50 category): high toxic range
Fly (oral LD50 mg/ml) ([1]; oral, chemical in fly media): .04 mg/mL
toxicity category in mice ([2]; mice, oral LD50 category): moderate toxicity
Mouse (oral LD50 mg/ml) ([2]; oral): 300 mg/mL
Rat (oral LD50 mg/ml) ([3]; oral): 560 mg/mL
toxicity category in rats ([3]; rats, oral LD50 category): moderate toxicity

N[C@@H](Cc1ccc(O)c(O)c1)C(=O)O [L-dopa]
Fly (oral LD50 mg/ml) ([1]; oral, chemical in fly media): .7 mg/mL
Mouse (oral LD50 mg/ml) ([2]; oral): 2363 mg/mL
Rat (oral LD50 mg/ml) ([3]; oral): 1780 mg/mL

Clc1cccc(Cl)c1N=C1NCCN1 [clonidine]
Fly (oral LD50 mg/ml) ([1]; in vivo, po): .07 mg/mL
Mouse (oral LD50 mg/ml) ([2]; in vivo, po): 135 mg/mL
Rat (oral LD50 mg/ml) ([3]; in vivo, po): 126 mg/mL

CN(C)c1ccncc1 [4-dimethyl aminopyridine]
Fly (oral LD50 mg/ml) ([1]; oral, chemical in fly media): .15 mg/mL
Rat (oral LD50 mg/ml) ([3]; oral): 250 mg/mL

[Cu] [Copper]
% survival ([4]; fly food: 0.4 mM Copper): 50%
% survival ([4]; fly food: 1.1 mM Copper): 0%

[Cl-].[Li+] [lithium chloride]
Fly (oral LD50 mg/ml) ([1]; oral, chemical in fly media): .4 mg/mL
Mouse (oral LD50 mg/ml) ([2]; oral): 1165 mg/mL
Rat (oral LD50 mg/ml) ([3]; oral): 526 mg/mL

O=S1(=O)OC(c2cc(Br)c(O)c(Br)c2)(c2cc(Br)c(O)c(Br)c2)c2ccccc21 [bromophenol blue]
Fly (oral LD50 mg/ml) ([1]; oral, chemical in fly media): 10 mg/mL

[N-]=[N+]=[N-] [sodium azide]
Fly (oral LD50 mg/ml) ([1]; oral, chemical in fly media): .05 mg/mL
Mouse (oral LD50 mg/ml) ([2]; oral): 27 mg/mL
Rat (oral LD50 mg/ml) ([3]; oral): 27 mg/mL

[Zn] [Zinc]
% survival ([4]; fly food: 2 mM Zinc): 50%
% survival ([4]; fly food: 6.0 mM Zinc): 0%

NC(=O)c1cccnc1 [niacinamide]
Fly (oral LD50 mg/ml) ([1]; in vivo, po): 5 mg/mL
Mouse (oral LD50 mg/ml) ([2]; in vivo, po): 2500 mg/mL
Rat (oral LD50 mg/ml) ([3]; in vivo, po): 3500 mg/mL
